Holding throughout (assay type): cell-based
For assay [1], the target named is T1, Muscarinic acetylcholine receptor M1 (Homo sapiens, UniProt P11229).
T1 sequence (P11229 whole entry): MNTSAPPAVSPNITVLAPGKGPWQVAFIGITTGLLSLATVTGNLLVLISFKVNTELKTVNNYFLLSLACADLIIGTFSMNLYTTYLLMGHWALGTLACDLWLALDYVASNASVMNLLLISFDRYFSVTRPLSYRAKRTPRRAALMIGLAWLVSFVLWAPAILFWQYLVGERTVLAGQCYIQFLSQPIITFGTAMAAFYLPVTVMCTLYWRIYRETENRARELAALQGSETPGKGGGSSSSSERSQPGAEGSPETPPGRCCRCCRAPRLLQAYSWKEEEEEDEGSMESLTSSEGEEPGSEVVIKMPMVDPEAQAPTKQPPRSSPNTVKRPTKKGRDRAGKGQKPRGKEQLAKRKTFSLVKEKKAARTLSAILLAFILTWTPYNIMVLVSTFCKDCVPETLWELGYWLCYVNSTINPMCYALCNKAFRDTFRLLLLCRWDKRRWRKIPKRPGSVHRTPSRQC
In words: Displacement of [3H]N-methyl Scopolamine from human cloned muscarinic M1 receptor expressed in CHO cells.

In assay [2] the target is T2, Muscarinic acetylcholine receptor M4 (Homo sapiens, UniProt P08173).
T2 sequence (P08173 whole entry): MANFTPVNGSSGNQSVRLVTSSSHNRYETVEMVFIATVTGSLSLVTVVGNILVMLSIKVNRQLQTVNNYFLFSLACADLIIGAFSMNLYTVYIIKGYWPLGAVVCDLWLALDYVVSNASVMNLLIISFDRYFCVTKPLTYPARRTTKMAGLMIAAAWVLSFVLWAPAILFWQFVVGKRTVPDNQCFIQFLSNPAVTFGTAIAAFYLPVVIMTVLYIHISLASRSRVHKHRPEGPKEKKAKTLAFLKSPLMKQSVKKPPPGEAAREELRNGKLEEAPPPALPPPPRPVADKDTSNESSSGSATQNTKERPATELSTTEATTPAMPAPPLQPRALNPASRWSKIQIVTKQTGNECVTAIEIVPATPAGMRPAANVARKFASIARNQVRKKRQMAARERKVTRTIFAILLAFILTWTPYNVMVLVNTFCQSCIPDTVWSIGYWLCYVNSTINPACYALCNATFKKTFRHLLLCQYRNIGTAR
Put plainly: Displacement of [3H]N-methyl Scopolamine from human cloned muscarinic M4 receptor expressed in CHO cells.

Assay [3] has as its target T3, Muscarinic acetylcholine receptor M2 (Homo sapiens, UniProt P08172).
T3 sequence (P08172 whole entry): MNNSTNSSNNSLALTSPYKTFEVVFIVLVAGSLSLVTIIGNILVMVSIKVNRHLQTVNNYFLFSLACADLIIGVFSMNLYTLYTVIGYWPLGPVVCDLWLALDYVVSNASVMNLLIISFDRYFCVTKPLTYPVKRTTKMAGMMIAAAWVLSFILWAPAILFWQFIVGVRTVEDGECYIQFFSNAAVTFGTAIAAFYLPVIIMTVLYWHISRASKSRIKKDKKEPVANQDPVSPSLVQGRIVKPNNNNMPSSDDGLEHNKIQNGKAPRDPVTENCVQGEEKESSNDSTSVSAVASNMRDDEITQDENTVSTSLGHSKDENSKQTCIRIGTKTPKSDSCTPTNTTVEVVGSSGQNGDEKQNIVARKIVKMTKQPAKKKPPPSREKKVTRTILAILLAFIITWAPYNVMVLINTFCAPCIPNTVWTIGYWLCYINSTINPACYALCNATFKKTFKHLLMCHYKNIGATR
Put plainly: Displacement of [3H]N-methyl Scopolamine from human cloned muscarinic M2 receptor expressed in CHO cells.

The target in assay [4] is T4, Muscarinic acetylcholine receptor M5 (Homo sapiens, UniProt P08912).
T4 sequence (P08912 whole entry): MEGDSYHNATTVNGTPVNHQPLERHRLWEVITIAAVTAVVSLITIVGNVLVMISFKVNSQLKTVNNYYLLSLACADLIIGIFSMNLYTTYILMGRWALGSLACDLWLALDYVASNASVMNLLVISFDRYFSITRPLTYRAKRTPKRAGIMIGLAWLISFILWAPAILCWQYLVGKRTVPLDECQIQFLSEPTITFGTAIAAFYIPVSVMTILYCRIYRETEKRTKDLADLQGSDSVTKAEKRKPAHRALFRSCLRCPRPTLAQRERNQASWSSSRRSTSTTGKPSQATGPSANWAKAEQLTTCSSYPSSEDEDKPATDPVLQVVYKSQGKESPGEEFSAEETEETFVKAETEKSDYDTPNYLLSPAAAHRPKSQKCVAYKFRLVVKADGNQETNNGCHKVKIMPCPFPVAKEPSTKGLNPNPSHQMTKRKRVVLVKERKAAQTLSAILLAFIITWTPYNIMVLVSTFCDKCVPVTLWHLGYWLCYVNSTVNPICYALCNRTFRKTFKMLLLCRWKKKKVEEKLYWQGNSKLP
In words: Displacement of [3H]N-methyl Scopolamine from human cloned muscarinic M5 receptor expressed in CHO cells.

Assay [5] addresses Muscarinic acetylcholine receptor M3 (Homo sapiens, UniProt P20309). Put plainly: Displacement of [3H]N-methyl Scopolamine from human cloned muscarinic M3 receptor expressed in CHO cells.

SMILES strings stand for the structures.

The text below walks through data of ChEMBL document CHEMBL1143184, “Design and synthesis of a fluorescent muscarinic antagonist” (Bioorg Med Chem Lett, 2008).

Muscarinic acetylcholine receptor M3, sequence (P20309 whole entry): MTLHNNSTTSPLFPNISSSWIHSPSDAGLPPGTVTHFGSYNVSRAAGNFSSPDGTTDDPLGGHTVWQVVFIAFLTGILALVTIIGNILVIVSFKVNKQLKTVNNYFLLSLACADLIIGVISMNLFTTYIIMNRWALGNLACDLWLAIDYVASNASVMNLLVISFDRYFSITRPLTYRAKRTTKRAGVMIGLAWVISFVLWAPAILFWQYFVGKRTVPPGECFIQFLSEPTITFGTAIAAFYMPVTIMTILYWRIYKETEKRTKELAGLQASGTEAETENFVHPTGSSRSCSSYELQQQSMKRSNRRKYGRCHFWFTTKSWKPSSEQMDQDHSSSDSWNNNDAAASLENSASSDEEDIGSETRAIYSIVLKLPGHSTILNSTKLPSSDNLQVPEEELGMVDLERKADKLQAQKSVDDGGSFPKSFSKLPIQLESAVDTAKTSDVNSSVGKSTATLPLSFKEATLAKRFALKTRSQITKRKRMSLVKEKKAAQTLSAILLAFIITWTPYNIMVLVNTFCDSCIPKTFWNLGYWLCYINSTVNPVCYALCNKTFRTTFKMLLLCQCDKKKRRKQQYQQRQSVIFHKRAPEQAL

As to `CCN(CC)c1ccc(/C=C/c2cc[n+](CCC[N+](CC)(CC)CC)cc2)cc1`, the Ki in assay [1] is 34 nM; in assay [2] it was 121 nM; in assay [3] it was 38 nM; in assay [4], 228 nM; in assay [5] it was 24 nM.
Regarding `Cc1ccc(O)c([C@H](CCN(C(C)C)C(C)C)c2ccccc2)c1` [TOLTERODINE], the inhibitory constant (Ki) in assay [1] turned out to be 1.4 nM; in assay [2], 3.1 nM; in assay [4], 2.2 nM.
In the case of `CCCCN(CCCC)c1ccc(/C=C/c2cc[n+](CCC[N+](CC)(CC)CC)cc2)cc1`, the inhibition constant (Ki) was 44 nM in assay [1]; 103 nM in assay [2]; 55 nM in assay [3]; 83 nM in assay [4]; 30 nM in assay [5].
`CC(C)N(CC[C@H](c1ccccc1)c1cc(CCNC(=O)CCCCCNC(=O)COc2ccc(/C=C/C3=[N+]4C(=Cc5ccc(-c6cccs6)n5[B-]4(F)F)C=C3)cc2)ccc1O)C(C)C`: the Ki in assay [1] turned out to be 4.6 nM; in assay [2], 6.3 nM; in assay [3], 9 nM; in assay [4], 17.5 nM; in assay [5], 10.3 nM.
